Test results as given in ChEMBL document CHEMBL2073949, “Dehydroepiandrosterone sulfate (DHEAS): identification of a carrier protein in human liver and brain” (FEBS Lett, 1998).

Legend:
Assay type in all cases: functional, cell-based, Oocyte
[1] = target: T1, Solute carrier organic anion transporter family member 1A2 (OATP1A2) (Homo sapiens, UniProt P46721); assay: TP_TRANSPORTER: uptake in Xenopus laevis oocytes; conditions: Xenopus laevis oocytes expressing OATP1A2 (SLCO1A2)
T1 sequence (P46721 whole entry): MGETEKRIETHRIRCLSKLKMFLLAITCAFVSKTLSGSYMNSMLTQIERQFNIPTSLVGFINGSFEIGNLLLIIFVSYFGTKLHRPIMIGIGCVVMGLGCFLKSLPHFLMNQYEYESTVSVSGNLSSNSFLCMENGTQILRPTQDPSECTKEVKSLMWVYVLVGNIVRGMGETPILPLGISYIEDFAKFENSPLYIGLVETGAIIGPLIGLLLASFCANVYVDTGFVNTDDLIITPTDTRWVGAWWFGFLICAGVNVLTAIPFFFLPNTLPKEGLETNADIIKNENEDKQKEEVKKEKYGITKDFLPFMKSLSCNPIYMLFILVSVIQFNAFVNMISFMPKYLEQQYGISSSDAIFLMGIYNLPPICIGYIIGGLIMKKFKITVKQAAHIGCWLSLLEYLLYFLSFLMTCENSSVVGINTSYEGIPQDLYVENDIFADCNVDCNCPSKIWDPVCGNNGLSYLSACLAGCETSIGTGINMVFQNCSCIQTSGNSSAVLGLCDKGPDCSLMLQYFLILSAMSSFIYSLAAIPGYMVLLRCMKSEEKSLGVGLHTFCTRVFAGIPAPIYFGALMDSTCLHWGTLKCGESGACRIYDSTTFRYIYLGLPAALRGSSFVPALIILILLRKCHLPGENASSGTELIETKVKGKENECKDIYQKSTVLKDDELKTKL

[2] = target: T1, Solute carrier organic anion transporter family member 1A2 (OATP1A2); assay: TP_TRANSPORTER: inhibition of DHEAS uptake (DHEAS: 5 uM, TUDC: 100 uM) in Xenopus laevis oocytes; conditions: Xenopus laevis oocytes expressing OATP1A2 (SLCO1A2), probe DHEAS (5 uM)
[3] = target: T1, Solute carrier organic anion transporter family member 1A2 (OATP1A2); assay: TP_TRANSPORTER: inhibition of DHEAS uptake (DHEAS: 5 uM, TCDC: 100 uM) in Xenopus laevis oocytes; conditions: Xenopus laevis oocytes expressing OATP1A2 (SLCO1A2), probe DHEAS (5 uM)
[4] = target: T1, Solute carrier organic anion transporter family member 1A2 (OATP1A2); assay: TP_TRANSPORTER: inhibition of DHEAS uptake (DHEAS: 5 uM, Estradiol-3-sulfate: 100 uM) in Xenopus laevis oocytes; conditions: Xenopus laevis oocytes expressing OATP1A2 (SLCO1A2), probe DHEAS (5 uM)
[5] = target: T1, Solute carrier organic anion transporter family member 1A2 (OATP1A2); assay: TP_TRANSPORTER: inhibition of DHEAS uptake (DHEAS: 5 uM, Dexamethasone: 100 uM) in Xenopus laevis oocytes; conditions: Xenopus laevis oocytes expressing OATP1A2 (SLCO1A2), probe DHEAS (5 uM)
[6] = target: T1, Solute carrier organic anion transporter family member 1A2 (OATP1A2); assay: TP_TRANSPORTER: inhibition of DHEAS uptake (DHEAS: 5 uM, E1S: 100 uM) in Xenopus laevis oocytes; conditions: Xenopus laevis oocytes expressing OATP1A2 (SLCO1A2), probe DHEAS (5 uM)

C[C@]12CC[C@H](OS(=O)(=O)O)CC1=CC[C@@H]1[C@@H]2CC[C@]2(C)C(=O)CC[C@@H]12 [PRASTERONE SULFURIC ACID]
Km [1]: 6.6 µM

C[C@H](CCC(=O)NCCS(=O)(=O)O)[C@H]1CC[C@H]2[C@@H]3[C@@H](O)C[C@@H]4C[C@H](O)CC[C@]4(C)[C@H]3CC[C@]12C [TAURURSODIOL]
inhibition at 100 µM [2]: 85.7%

C[C@H](CCC(=O)NCCS(=O)(=O)O)[C@H]1CC[C@H]2[C@@H]3[C@H](O)C[C@@H]4C[C@H](O)CC[C@]4(C)[C@H]3CC[C@]12C [TAUROCHENODEOXYCHOLATE]
inhibition at 100 µM [3]: 75.2%

C[C@]12CC[C@@H]3c4ccc(OS(=O)(=O)O)cc4CC[C@H]3[C@@H]1CC[C@@H]2O
inhibition at 100 µM [4]: 92.9%

C[C@@H]1C[C@H]2[C@@H]3CCC4=CC(=O)C=C[C@]4(C)[C@@]3(F)[C@@H](O)C[C@]2(C)[C@@]1(O)C(=O)CO [DEXAMETHASONE]
inhibition at 100 µM [5]: 97.3%

C[C@]12CC[C@@H]3c4ccc(OS(=O)(=O)O)cc4CC[C@H]3[C@@H]1CCC2=O [ESTRONE SULFURIC ACID]
inhibition at 100 µM [6]: 82.3%
